Patent US8779157B2, “MGLUR4 allosteric potentiators, compositions, and methods of treating neurological dysfunction” (Vanderbilt University, priority 2009, dated 2014)

What follows are compounds tested against mGluR4 (UniProt Q14833) (assay: mGluR4 potentiation assay (fluorescence, Ca2+ or thallium/GIRK readout; EC20 agonist)). Settings: half maximal effective concentration for mGluR4 potentiation; species of receptor not given.
Type: cell-based, human / rat
Experimental: The disclosed compounds and compositions can be evaluated for their ability to act as a potentiator of metabotropic glutamate receptor activity, in particular mGluR4 activity, by any suitable known methodology known in the art. For example, Chinese Hamster Ovary (CHO) cells transfected with human mGluR4 or HEK cells co-transfected with rat mGluR4 and the G-protein regulated Inwardly Rectifying Potassium channel (GIRK) were plated in clear bottom assay plates for assay in a Hamamatsu FDSS Fluorometric Plate Reader. The cells were loaded with either a Ca2+-sensitive fluorescent dye or the thallium responsive dye and the plates were washed and placed into a suitable kinetic plate reader. For human mGluR4 assays, a fluorescence baseline was established for 3-5 seconds, the disclosed compounds were then added to the cells, and the response in cells was measured. Approximately two and a half minutes later, a concentration of mGluR4 orthosteric agonist (e.g. glutamate or L-AP4) eliciting approximately 20% (EC20) of the maximal agonist response was added to the cells, and the response was measured. Two minutes later, a concentration of mGluR4 agonist (e.g. glutamate or L-AP4) eliciting 80% (EC80) of the maximal agonist response was added to the cells, and the response was measured. For rat mGluR4/GIRK experiments, a baseline was established for approximately five seconds, disclosed compounds were added, and either an EC20 or EC80 concentration of agonist was added approximately two and one half minutes later. Potentiation of the agonist response of mGluR4 by the disclosed compounds was observed as an increase in response to the EC20 concentration of agonist in the presence of compound compared to the response to agonist in the absence of compound. Similarly, antagonism of the agonist response of mGluR4 by the disclosed compounds was observed as a decrease in response to the EC80 concentration of agonist in the presence of compound compared to the response to agonist in the absence of compound.
The above described assay operated in two modes. In the first mode, a range of concentrations of the disclosed compounds are added to cells, followed by a single fixed concentration of agonist. If the compound acts as a potentiatior, an EC50 value for potentiation and a maximum extent of potentiation by the compound at this concentration of agonist is determined by non-linear curve fitting. If the compound acts as a noncompetitive antagonist, an IC50 value is determined by non-linear curve fitting. In the second mode, several fixed concentrations of the disclosed compounds are added to various wells on a plate, followed by a range in concentrations of agonist for each concentration of disclosed compound. The EC50 values for the agonist at each concentration of compound are determined by non-linear curve fitting. A decrease in the EC50 value of the agonist with increasing concentrations of the sample compound (a leftward shift of the agonist concentration-response curve) is an indication of the degree of mGluR4 potentiation at a given concentration of the sample compound. A decrease in the maximal response of the agonist with increasing concentrations of the sample compounds, with or without a rightward shift in agonist potency, is an indication of the degree of noncompetitive antagonism at mGluR4. The second mode also indicates whether the sample compounds also affect the maximum response to mGluR4 to agonists.

Going from `O=C(Nc1ccc(N2C(=O)N[C@@H](c3ccccc3)C2=O)c(Cl)c1)c1ccccn1` [Example 1.3.56, (S)-N-(3-chloro-4-(2,5-dioxo-4-phenylimidazolidin-1-yl)phenyl)picolinamide] to `CN1C(=O)N(c2ccc(NC(=O)c3ccccn3)cc2Cl)C(=O)[C@]1(C)Cc1ccccc1` [Example 1.3.64, (S)-N-(4-(4-benzyl-3,4-dimethyl-2,5-dioxoimidazolidin-1-yl)-3-chlorophenyl)picolinamide], the EC50 falls from 380 nM to 197 nM (1.9-fold). The second is the more potent here.

`CC(C)(C)[C@@H]1NC(=O)N(c2ccc(NC(=O)c3ccccn3)cc2Cl)C1=O` [Example 1.3.57, (S)-N-(4-(4-(tert-butyl)-2,5-dioxoimidazolidin-1-yl)-3-chlorophenyl)picolinamide] and `CC(C)N1C(=O)N(c2ccc(NC(=O)c3ccccn3)cc2Cl)C(=O)[C@@H]1C(C)(C)C` [Example 1.3.58, (S)-N-(4-(4-(tert-butyl)-3-isopropyl-2,5-dioxoimidazolidin-1-yl)-3-chlorophenyl)picolinamide] are the same in EC50: 200 nM for the first, 200 nM for the second.

First: CC(C)[C@]1(C)NC(=O)N(c2ccc(NC(=O)c3ccccn3)cc2Cl)C1=O [Example 1.3.59, (S)-N-(3-chloro-4-(4-isopropyl-4-methyl-2,5-dioxoimidazolidin-1-yl)phenyl)picolinamide]
Second: CC(C)[C@@]1(C)NC(=O)N(c2ccc(NC(=O)c3ccccn3)cc2Cl)C1=O [Example 1.3.60, (R)-N-(3-chloro-4-(4-isopropyl-4-methyl-2,5-dioxoimidazolidin-1-yl)phenyl)picolinamide]
The EC50 of the first is 2.4-fold lower: 1500 nM for the first, 3590 nM for the second.

First: C[C@@]1(Cc2ccc(F)cc2)NC(=O)N(c2ccc(NC(=O)c3ccccn3)cc2Cl)C1=O [Example 1.3.61, (S)-N-(3-chloro-4-(4-(4-fluorobenzyl)-4-methyl-2,5-dioxoimidazolidin-1-yl)phenyl)picolinamide]
Second: COc1cc(NC(=O)c2ccccn2)ccc1N1C(=O)N[C@@](C)(Cc2ccc(F)cc2)C1=O [Example 1.3.63, (S)-N-(4-(4-(4-fluorobenzyl)-4-methyl-2,5-dioxoimidazolidin-1-yl)-3-methoxyphenyl)picolinamide]
The EC50 of the first is 3.1-fold lower: 335 nM for the first, 1040 nM for the second.

`CN1C(=O)N(c2ccc(NC(=O)c3ccccn3)cc2Cl)C(=O)[C@]1(C)Cc1ccc(F)cc1` [Example 1.3.62, (S)-N-(3-chloro-4-(4-(4-fluorobenzyl)-3,4-dimethyl-2,5-dioxoimidazolidin-1-yl)phenyl)picolinamide] and `CCN1C(=O)N(c2ccc(NC(=O)c3ccccn3)cc2Cl)C(=O)[C@]1(C)Cc1ccccc1` [Example 1.3.65, (S)-N-(4-(4-benzyl-3-ethyl-4-methyl-2,5-dioxoimidazolidin-1-yl)-3-chlorophenyl)picolinamide] are within 1.5-fold of each other in EC50: 217 nM for the first, 236 nM for the second.

First: C[C@@]1(Cc2ccccc2)NC(=O)N(c2ccc(NC(=O)c3ncc(F)cc3F)cc2Cl)C1=O [Example 1.3.66, (S)-N-(4-(4-benzyl-4-methyl-2,5-dioxoimidazolidin-1-yl)-3-chlorophenyl)-3,5-difluoropicolinamide]
Second: C[C@@]1(Cc2ccccc2)NC(=O)N(c2ccc(NC(=O)c3nccs3)cc2Cl)C1=O [Example 1.3.67, (S)-N-(4-(4-benzyl-4-methyl-2,5-dioxoimidazolidin-1-yl)-3-chlorophenyl)thiazole-2-carboxamide]
The EC50 of the first is 2.1-fold lower: 2960 nM for the first, 6110 nM for the second.

Compared with `COc1cccc(C(=O)Nc2ccc(N3C(=O)N[C@@](C)(Cc4ccccc4)C3=O)c(Cl)c2)n1` [Example 1.3.68, (S)-N-(4-(4-benzyl-4-methyl-2,5-dioxoimidazolidin-1-yl)-3-chlorophenyl)-6-methoxypicolinamide], `C[C@@]1(Cc2ccccc2)NC(=O)N(c2ccc(NC(=O)c3cccc(F)n3)cc2Cl)C1=O` [Example 1.3.69, (S)-N-(4-(4-benzyl-4-methyl-2,5-dioxoimidazolidin-1-yl)-3-chlorophenyl)-6-fluoropicolinamide] is 3.6-fold lower in EC50: 5880 nM for the first, 1630 nM for the second. The second is the more potent here.

Compound `O=C(Nc1ccc(N2C(=O)NC(C3CCCCC3)C2=O)c(Cl)c1)c1ccccn1` (stereo not drawn) [Example 1.3.70, N-(3-chloro-4-(4-cyclohexyl-2,5-dioxoimidazolidin-1-yl)phenyl)picolinamide] has an EC50 of 743 nM.
